Conditions: instrument: DT, single field, calibrated with Agilent tune mix (Agilent)

| SMILES | collision cross section (N2) ([M+H]+) [Å²] | collision cross section (N2) ([M-H]-) [Å²] | also measured |
| --- | --- | --- | --- |
| N[C@@H](CCSC[C@H](N)C(=O)O)C(=O)O [L-Cystathionine] | 147 | 139.51 |  |
| O=C1O[C@H]([C@@H](O)CO)[C@H](O)[C@@H]1O [L-Gulonic gamma-lactone] |  | 131.6 | collision cross section (N2) ([M+Na]+): 140.6 Å² |
| Nc1ccccc1C(=O)C[C@H](N)C(=O)O [L-Kynurenine] | 149.1 |  |  |
| O=C(O)[C@@H]1CCCCN1 [L-Pipecolic acid] | 127.4 | 126.71 |  |
| O=C1CC[C@@H](C(=O)O)N1 [L-Pyroglutamic acid] | 130.6 |  |  |
| N[C@@H](CCCCN[C@@H](CCC(=O)O)C(=O)O)C(=O)O [L-Saccharopine] | 159.8 |  | collision cross section (N2) ([M+2Na-3H]-): 163.17 Å² |
| N[C@@H](CCS(=O)(=O)O)C(=O)O [L-homocysteic acid] | 140.3 |  | collision cross section (N2) ([M+Na-2H]-): 132.56 Å² |
| CC(C)CCC[C@@H](C)[C@H]1CC[C@H]2C3=CC[C@H]4C[C@@H](O)CC[C@]4(C)[C@H]3CC[C@]12C [Lathosterol] |  |  | collision cross section (N2) ([M+H-H2O]+): 204.5 Å² |
| NC(=O)CCCCC1CCSS1 (configuration not stated) [Lipoamide] |  |  | collision cross section (N2) ([M+Na]+): 150.5 Å² |
| O=P(O)(O)OC[C@H]1OC(O)[C@@H](O)[C@@H](O)[C@@H]1O (some centres not stated) [Mannose-6-phosphate] |  |  | collision cross section (N2) ([M+Na]+): 155.8 Å² |
| C[N+](C)(C)CCCC[C@H](N)C(=O)[O-] [N6,N6,N6-Trimethyl-L-lysine] | 142 |  |  |
| CNCCCC[C@H](N)C(=O)O [N6-Methyl-L-lysine] | 132.5 | 134.21 |  |
| CC(=O)N[C@@H](Cc1ccc(O)cc1)C(=O)O [N-Acetyl-L-tyrosine] |  | 149.44 | collision cross section (N2) ([M+Na]+): 154.5 Å² |
| CC(=O)NCCCCCN [N-Acetylcadaverine] | 132.9 | 131.77 |  |
| CC(=O)N[C@H]1C(OP(=O)(O)O)O[C@H](CO)[C@@H](O)[C@@H]1O (some centres not stated) [N-Acetylglucosamine 1-phosphate] |  | 156.42 | collision cross section (N2) ([M+Na]+): 166.6 Å² |
| CC(=O)N[C@@H]1C(O)O[C@H](CO)[C@@H](O)[C@@H]1O (some centres not stated) [N-Acetylmannosamine] |  |  | collision cross section (N2) ([M+Na]+): 149.9 Å² |
| CC(=O)NCCc1c[nH]c2ccc(O)cc12 [N-Acetylserotonin] | 149.8 | 148.65 |  |
| CCCCCCCCCCCCC/C=C/[C@@H](O)[C@H](CO)NC(=O)CCCCCCCCCCCCCCCCC [N-Stearoylsphingosine] |  | 248.67 | collision cross section (N2) ([M+Na]+): 256.4 Å² |
| CN(C)C(N)=NCCC[C@H](N)C(=O)O [NG,NG-dimethyl-L-arginine] | 143.5 |  |  |

| SMILES | collision cross section (N2) ([M+H]+) [Å²] | collision cross section (N2) ([M-H]-) [Å²] | also measured |
| --- | --- | --- | --- |
| CCCCCCCC/C=C\CCCCCCCCCCCCCC(=O)O [Nervonic acid] |  | 196.32 | collision cross section (N2) ([M+H-H2O]+): 196.8 Å² |
| NC(=O)c1ccc[n+]([C@@H]2O[C@H](COP(=O)([O-])OP(=O)(O)OC[C@H]3O[C@@H](n4cnc5c(N)ncnc54)[C@H](O)[C@@H]3O)[C@@H](O)[C@H]2O)c1 [Nicotinamide adenine dinucleotide (NAD)] | 226.7 |  |  |
| O=C(O)c1ccc[n+]([C@@H]2O[C@H](COP(=O)(O)O)[C@@H](O)[C@H]2O)c1 [Nicotinate D-ribonucleotide] | 164.8 |  |  |
| Nc1ncnc2c1ncn2[C@@H]1O[C@H](COP(=O)(O)OP(=O)(O)OC[C@H]2O[C@@H]([n+]3cccc(C(=O)O)c3)[C@H](O)[C@@H]2O)[C@@H](O)[C@H]1O [Nicotinic acid adenine dinucleotide] |  |  | collision cross section (N2) ([M+2Na-3H]-): 238.49 Å² |
| O=C(O)CNC(=O)c1cccnc1 [Nicotinuric acid] | 143.6 | 138.08 |  |
| N[C@@H](CCOP(=O)(O)O)C(=O)O [O-Phospho-L-homoserine] |  |  | collision cross section (N2) ([M+Na]+): 141.6 Å² |
| CCCCCCCC/C=C\CCCCCCCC(=O)SCCNC(=O)CCNC(=O)[C@H](O)C(C)(C)COP(=O)(O)OP(=O)(O)OC[C@H]1O[C@@H](n2cnc3c(N)ncnc32)[C@H](O)[C@@H]1OP(=O)(O)O [Oleoyl-CoA] | 299.4 | 298.79 |  |
| O=c1nc2[nH][nH]cc-2c(=O)[nH]1 [Oxypurinol] | 126.7 | 120.1 |  |
| CC(C)(CO)[C@@H](O)C(=O)NCCC(=O)NCCS [Pantetheine] |  |  | collision cross section (N2) ([M+H-H2O]+): 164.6 Å²; collision cross section (N2) ([M+Na-2H]-): 164.94 Å² |
| CC(C)(CO)[C@@H](O)C(=O)NCCCO [Pantothenol] | 144.7 | 141.49 |  |
| CCCCCCCCC(=O)O [Pelargonic acid] |  | 143.33 |  |
| CCCCCCCCCCCCCCC(=O)O [Pentadecanoic Acid] |  | 162.72 |  |
| O=C(O)C#Cc1ccccc1 [Phenylpropiolic acid] |  |  | collision cross section (N2) ([M+H-H2O]+): 121.2 Å² |
| O=C(O)CNC(=O)CCc1ccccc1 [Phenylpropionylglycine] |  | 153.3 | collision cross section (N2) ([M+Na]+): 145.5 Å² |
| O=C(O)CCCCCC(=O)O [Pimelic acid] |  | 129.29 |  |
| NCc1[nH]cc(CCC(=O)O)c1CC(=O)O [Porphobilinogen] |  | 146.22 | collision cross section (N2) ([M+Na]+): 148.1 Å² |
| O=C(O)C(=O)CC1(C(=O)O)C=CC(O)C=C1 (configuration not stated) [Prephenate] |  |  | collision cross section (N2) ([M+Na]+): 155 Å² |
| CCC(=O)NCC(=O)O [Propionylglycine] |  | 126.93 |  |
| O=c1[nH]cc([C@@H]2O[C@H](CO)[C@@H](O)[C@H]2O)c(=O)[nH]1 [Pseudouridine] |  | 145.23 | collision cross section (N2) ([M+Na]+): 159 Å² |

| SMILES | collision cross section (N2) ([M+H]+) [Å²] | collision cross section (N2) ([M-H]-) [Å²] | also measured |
| --- | --- | --- | --- |
| Cc1ncc(COP(=O)(O)O)c(CO)c1O [Pyridoxine 5-phosphate] | 150.5 |  |  |
| Nc1ncnc2c1ncn2[C@@H]1O[C@H](CSCC[C@H](N)C(=O)O)[C@@H](O)[C@H]1O [S-Adenosyl-L-homocysteine] | 182.7 |  |  |
| C[S+](CC[C@H](N)C(=O)[O-])C[C@H]1O[C@@H](n2cnc3c(N)ncnc32)[C@H](O)[C@@H]1O (some centres not stated) [S-Adenosylmethionine] | 184.5 |  |  |
| CC(O)C(=O)SC[C@H](NC(=O)CC[C@H](N)C(=O)O)C(=O)NCC(=O)O (some centres not stated) [S-Lactoylglutathione] | 187.7 |  | collision cross section (N2) ([M+Na-2H]-): 176.59 Å² |
| O=C(O)CCCCCCCCC(=O)O [Sebacic acid] |  | 141.9 |  |
| CC(C)=CCC/C(C)=C/CC/C(C)=C/CC/C=C(\C)CC/C=C(\C)CCC=C(C)C [Squalene] | 210.9 |  |  |
| O=C(O)CCCCCCC(=O)O [Suberic acid] |  | 133.2 |  |
| O=C(O)CCCCCCC(=O)NCC(=O)O [Suberylglycine] |  | 146.81 | collision cross section (N2) ([M+Na]+): 153.7 Å² |
| O=C(O)C(O)C(O)C(=O)O (configuration not stated) [Tartaric acid] |  | 115.46 |  |
| C[C@H](CCC(=O)NCCS(=O)(=O)O)[C@H]1CC[C@H]2[C@@H]3[C@H](O)C[C@@H]4C[C@H](O)CC[C@]4(C)[C@H]3C[C@H](O)[C@]12C [Taurocholate] |  | 205.82 | collision cross section (N2) ([M+Na]+): 211.2 Å² |
| Nc1nc(=O)c2c([nH]1)NCC(CNc1ccc(C(=O)N[C@@H](CCC(=O)O)C(=O)O)cc1)N2 (some centres not stated) [Tetrahydrofolate] |  | 195.36 |  |
| Cc1ncc(C[n+]2csc(CCOP(=O)(O)O)c2C)c(N)n1 [Thiamine monophosphate] | 169.7 |  |  |
| O=C(O)/C=C/CCCCCCCCC(=O)O [Traumatic Acid] |  | 149.85 | collision cross section (N2) ([M+Na]+): 161.9 Å² |
| NCCc1c[nH]c2ccccc12 [Tryptamine] |  | 131.55 | collision cross section (N2) ([M+H-H2O]+): 125.1 Å² |
| NCCc1ccc(O)cc1 [Tyramine] |  | 129.74 |  |
| COC1=C(OC)C(=O)C(C/C=C(\C)CCC=C(C)C)=C(C)C1=O [Ubiquinone-2] | 174.3 |  |  |
| O=c1ccn([C@@H]2O[C@H](COP(=O)(O)OP(=O)(O)O)[C@@H](O)[C@H]2O)c(=O)[nH]1 [Uridine 5'-diphosphate] | 176.5 |  |  |
| O=C(O)[C@H]1O[C@H](OP(=O)(O)OP(=O)(O)OC[C@H]2O[C@@H](n3ccc(=O)[nH]c3=O)[C@H](O)[C@@H]2O)[C@H](O)[C@@H](O)[C@@H]1O [Uridine 5'-diphosphoglucuronic acid] |  |  | collision cross section (N2) ([M+Na-2H]-): 201.6 Å²; collision cross section (N2) ([M+Na]+): 210.1 Å² |
